From ChEMBL document CHEMBL1131242, “6beta-Acetoxynortropane: a potent muscarinic agonist with apparent selectivity toward M2-receptors” (J Med Chem, 1998)

Columns and labels:
[1] = molecular target: Muscarinic acetylcholine receptor M3 (Homo sapiens, UniProt P20309); assay: Inhibition of binding of [3H]quinuclidinyl benzilate to human Muscarinic acetylcholine receptor M3 in membranes of transfected CHO cells at 100 uM concentration; conditions: Membrane
[2] = molecular target: Muscarinic acetylcholine receptor M1 (Homo sapiens) (UniProt P11229); assay: Inhibition of binding of [3H]quinuclidinyl benzilate to human Muscarinic acetylcholine receptor M1 in membranes of transfected CHO cells at 300 uM concentration; conditions: Membrane
Sequence of Muscarinic acetylcholine receptor M1 (Homo sapiens) (P11229 whole entry, looked up): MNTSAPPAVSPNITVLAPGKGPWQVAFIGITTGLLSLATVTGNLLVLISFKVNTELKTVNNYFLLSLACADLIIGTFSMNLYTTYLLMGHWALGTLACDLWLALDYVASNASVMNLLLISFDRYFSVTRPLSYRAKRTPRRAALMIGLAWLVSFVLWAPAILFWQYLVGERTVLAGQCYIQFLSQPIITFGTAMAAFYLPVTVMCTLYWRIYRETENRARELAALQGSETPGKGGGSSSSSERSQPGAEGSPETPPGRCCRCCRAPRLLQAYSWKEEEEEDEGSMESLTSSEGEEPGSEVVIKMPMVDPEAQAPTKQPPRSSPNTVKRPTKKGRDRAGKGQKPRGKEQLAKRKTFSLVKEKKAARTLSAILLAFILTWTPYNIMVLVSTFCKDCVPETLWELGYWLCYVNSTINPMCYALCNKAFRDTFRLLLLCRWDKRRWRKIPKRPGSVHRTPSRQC

Sequence of Muscarinic acetylcholine receptor M3 (P20309 whole entry, looked up): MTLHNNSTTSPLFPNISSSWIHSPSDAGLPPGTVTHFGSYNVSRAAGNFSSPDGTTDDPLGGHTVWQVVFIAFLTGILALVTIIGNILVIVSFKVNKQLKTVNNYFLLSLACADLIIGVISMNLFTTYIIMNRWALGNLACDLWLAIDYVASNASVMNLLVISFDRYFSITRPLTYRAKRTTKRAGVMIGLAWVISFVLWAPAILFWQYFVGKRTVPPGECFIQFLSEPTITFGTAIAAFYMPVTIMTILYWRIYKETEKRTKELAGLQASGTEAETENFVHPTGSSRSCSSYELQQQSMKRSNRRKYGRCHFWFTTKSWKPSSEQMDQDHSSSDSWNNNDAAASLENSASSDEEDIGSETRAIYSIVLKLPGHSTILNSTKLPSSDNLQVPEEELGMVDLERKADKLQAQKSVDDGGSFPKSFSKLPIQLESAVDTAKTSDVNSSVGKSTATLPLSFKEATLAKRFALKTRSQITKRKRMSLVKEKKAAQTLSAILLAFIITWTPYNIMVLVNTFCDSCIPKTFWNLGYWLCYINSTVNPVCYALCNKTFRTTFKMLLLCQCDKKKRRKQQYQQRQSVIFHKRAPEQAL

**Q.** With `CC(=O)OC(C)C[N+](C)(C)C` (configuration not stated) [METHACHOLINE] as the compound, how does the inhibition [1] read?
**A.** 34%

**Q.** And the inhibition [2]?
**A.** 8%
